Reference: patent US20090111856A1, “Parenteral Formulation Comprising Proton Pump Inhibitor Sterilized in its Final Container by Ionizing Radiation” (priority 2006, published 2009)

Assay: Appearance of acid susceptible proton pump inhibitor powders before and after gamma sterilization
Assay type: physicochemical
Conditions: for Color change after radiation: gamma sterilization 25 kGy; for Appearance After sterilization (25 kGy) / Appearance Before sterilization: powder; for Appearance After sterilization (25 kGy): after gamma sterilization 25 kGy; for Appearance Before sterilization: before gamma sterilization
Method: In addition to esomeprazole sodium exemplified in Example 1, three other acid susceptible proton pump inhibitors, omeprazole sodium, pantoprazole sodium and lansoprazole, were gamma sterilized with a sterilizing dose of 25 kGy. The appearance of the powder was determined before and after gamma sterilization.

Row | SMILES | Color change after radiation | Appearance After sterilization (25 kGy) | Appearance Before sterilization
1 | Cc1c(OCC(F)(F)F)ccnc1C[S+]([O-])c1nc2ccccc2[nH]1 (stereo not shown) [Lansoprazole] | no color change |  | 
2 | COc1ccnc(C[S+]([O-])c2nc3ccc(OC(F)F)cc3[nH]2)c1OC (stereo not shown) [Pantoprazole sodium] | some small (very minor) color changes | Very slightly yellow | White to off-white
3 | COc1ccc2[n-]c([S+]([O-])Cc3ncc(C)c(OC)c3C)nc2c1.[Na+] (stereo not shown) [Omeprazole sodium] | some small (very minor) color changes | Very slightly yellow | White to off-white
